Assay [1] deals with BRD4 (His-Brd4(44-477)) (Homo sapiens (Human), UniProt O60885). Put plainly: TR-FRET in-vitro binding assay for BRD4. Particulars: single determination or n ≧ 2 independent determinations, read-out: Biochemical IC50 BRD4. The method in brief: (§1)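 TR-FRET binding with His-tagged bromodomain constructs, 8-point compound dilutions from 10 mM DMSO stocks. Reactions incubated 35 min at 30° C in 13.55 μL, read on an EnVision multilabel reader.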

Assay [2] has as its target BRD2 (His-Brd2(60-472)) (Homo sapiens (Human), UniProt P25440). Put plainly: TR-FRET in-vitro binding assay for BRD2. Particulars: single determination or n ≧ 2 independent determinations, read-out: Biochemical IC50 BRD2. Put shortly:
as §1

In assay [3] the target is BRD3 (His-Brd3(20-477)) (Homo sapiens (Human), UniProt Q15059). The experiment in a line: TR-FRET in-vitro binding assay for BRD3. Particulars: single determination or n ≧ 2 independent determinations, read-out: Biochemical IC50 BRD3. The method in brief: as §1
BRD3 (His-Brd3(20-477)), sequence (Q15059 20-477): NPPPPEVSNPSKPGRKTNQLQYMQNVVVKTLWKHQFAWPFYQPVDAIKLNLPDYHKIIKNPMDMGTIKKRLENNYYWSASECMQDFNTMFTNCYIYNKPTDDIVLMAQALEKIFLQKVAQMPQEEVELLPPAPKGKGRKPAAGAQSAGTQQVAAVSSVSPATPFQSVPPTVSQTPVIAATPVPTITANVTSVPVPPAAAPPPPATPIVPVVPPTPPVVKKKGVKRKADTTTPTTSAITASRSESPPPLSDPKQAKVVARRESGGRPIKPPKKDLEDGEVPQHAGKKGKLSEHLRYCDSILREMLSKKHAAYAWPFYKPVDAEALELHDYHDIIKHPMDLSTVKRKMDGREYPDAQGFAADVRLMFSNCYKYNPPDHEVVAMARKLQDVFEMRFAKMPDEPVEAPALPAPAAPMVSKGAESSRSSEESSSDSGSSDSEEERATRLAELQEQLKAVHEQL
Assay [4] concerns the target CREBBP bromodomain (His-CREBBP(1081-1197)) (Homo sapiens (Human), UniProt Q92793). Put plainly: AlphaScreen in-vitro binding assay for CREBBP. Particulars: single determination or n ≧ 2 independent determinations, read-out: Biochemical IC50 CREBBP. The method in brief: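 Reactions at 30 °C for 35 min, then Ni-chelate acceptor and streptavidin donor beads in HEPES pH 7.5, NaCl, Tween20, BSA, 60 min at room temperature. Eight-point compound series; IC50 by non-linear regression of percent inhibition.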

Assay [5] has as its target nuclear BRD4-NUT foci in HCC2494 NUT midline carcinoma cells (Homo sapiens, UniProt O60885). Put plainly: cell-based.
The test system of assay [6] is THP-1 cells. Put plainly: Cell growth inhibition assay (CellTiter-Glo), THP-1.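 As to all read-outs here: viability read as cellular ATP luminescence after 4 days, 3-fold dilution series from 10 µM, DMSO vehicle-treated cells taken as 100%, cell-free medium wells as −100%.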 Particulars: for GI50: Homo sapiens, THP-1, read-out: THP-1 GI50; for THP-1 TGI: THP-1 cells, total growth inhibition, CellTiter-Glo.
For assay [7], the system named is K-562 cells. Put plainly: Cell growth inhibition assay (CellTiter-Glo), K-562.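 As to all read-outs here: cellular ATP measured by luminescence after 4 days of exposure, 3-fold dilution series from 10 µM, DMSO vehicle-treated cells define 100%, cell-free medium wells −100%.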 Particulars: for GI50: Homo sapiens, K562, read-out: K-562 GI50; for K-562 TGI: K-562 cells, total growth inhibition, CellTiter-Glo.
Assay [8] concerns MV-4-11 cells. Put plainly: Cell growth inhibition assay (CellTiter-Glo), MV-4-11.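 As to all read-outs here: cellular ATP luminescence after 4 days, 3-fold dilution series from 10 µM top dose, vehicle (0.1% DMSO) set to 100%, cell-free medium set to −100%, day 0 corrected.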 Particulars: for GI50: Homo sapiens, MV4-11, read-out: MV-4-11 GI50; for MV-4-11 TGI: MV-4-11 cells, total growth inhibition, CellTiter-Glo.

CREBBP bromodomain (His-CREBBP(1081-1197)), sequence (Q92793 1081-1197): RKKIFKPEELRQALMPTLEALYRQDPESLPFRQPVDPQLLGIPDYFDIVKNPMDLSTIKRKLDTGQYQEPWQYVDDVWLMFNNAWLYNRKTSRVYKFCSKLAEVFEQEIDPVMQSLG
BRD2 (His-Brd2(60-472)), sequence (P25440 60-472): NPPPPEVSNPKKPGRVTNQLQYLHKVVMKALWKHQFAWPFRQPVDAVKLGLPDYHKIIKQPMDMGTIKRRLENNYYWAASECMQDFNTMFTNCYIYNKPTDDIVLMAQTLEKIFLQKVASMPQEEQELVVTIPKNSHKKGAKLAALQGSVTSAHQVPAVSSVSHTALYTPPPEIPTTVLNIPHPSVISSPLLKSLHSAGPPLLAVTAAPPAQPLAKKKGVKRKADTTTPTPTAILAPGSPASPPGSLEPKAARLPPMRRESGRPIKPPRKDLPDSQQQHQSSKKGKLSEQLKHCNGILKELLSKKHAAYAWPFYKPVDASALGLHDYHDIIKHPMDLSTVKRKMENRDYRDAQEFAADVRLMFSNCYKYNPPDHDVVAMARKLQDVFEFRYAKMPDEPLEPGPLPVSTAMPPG

For the molecule `Cc1cc(N2C(=O)c3nc(C)n(C(C)C)c3C2c2ccc(Cl)cc2)cc2c1nnn2C` (racemic) [Example 2, 6-(4-chlorophenyl)-5-(3,7-dimethyl-3H-benzo[d][1,2,3]triazol-5-yl)-1-isopropyl-2-methyl-5,6-dihydropyrrolo[3,4-d]imidazol-4(1H)-one], the IC50 in assay [1] came out at 0.02 µM; in assay [2], 0.033 µM; in assay [3], 0.015 µM; in assay [4], 8.6 µM; in assay [5], 0.0145 µM. In addition, the GI50 came out at 0.0234 µM in assay [6], 0.0959 µM in assay [7] and 0.0138 µM in assay [8]. Besides, in assay [6], the “THP-1 TGI” value worked out at 0.04095 µM. In addition, the “K-562 TGI” value in assay [7] is greater than 10 µM. In addition, the “MV-4-11 TGI” value in assay [8] is 0.02865 µM.
With `Cc1cc(N2C(=O)c3c(nc(C)n3C(C)C)C2c2ccc(Cl)cc2)cc2c1nnn2C` (racemic) [Example 3, 6-(4-chlorophenyl)-5-(3,7-dimethyl-3H-benzo[d][1,2,3]triazol-5-yl)-3-isopropyl-2-methyl-5,6-dihydropyrrolo[3,4-d]imidazol-4(3H)-one], the half-maximal inhibitory concentration (IC50) amounted to 0.015 µM in assay [1]; 0.027 µM in assay [2]; 0.012 µM in assay [3]; 2.6 µM in assay [4]; 0.0123 µM in assay [5]. Further, the concentration for 50% growth inhibition (GI50) in assay [6] is 0.0137 µM; in assay [7], 0.0551 µM; in assay [8], 0.00819 µM. For the same molecule, the “THP-1 TGI” value in assay [6] was found to be 0.02755 µM. Further, the “K-562 TGI” value in assay [7] is greater than 10 µM. The “MV-4-11 TGI” value in assay [8] turned out to be 0.01445 µM.
For `CC(C)n1c(-c2cnoc2)nc2c1C(c1ccc(Cl)cc1)N(c1ccc(=O)n(C)c1)C2=O` (stereo not drawn) [Example 19, 6-(4-chlorophenyl)-1-isopropyl-2-(isoxazol-4-yl)-5-(1-methyl-6-oxo-1,6-dihydropyridin-3-yl)-5,6-dihydropyrrolo[3,4-d]imidazol-4(1H)-one], the concentration for half-maximal inhibition (IC50) in assay [1] was 0.22 µM; in assay [5], greater than 10 µM.
Take `Cc1noc(C)c1-c1nc2c(n1C(C)C)C(c1ccc(Cl)cc1)N(c1cc(C)c(=O)n(C)c1)C2=O` (stereo not drawn) [Example 27, 6-(4-chlorophenyl)-5-(1,5-dimethyl-6-oxo-1,6-dihydropyridin-3-yl)-2-(3,5-dimethylisoxazol-4-yl)-1-isopropyl-5,6-dihydropyrrolo[3,4-d]imidazol-4(1H)-one]: the IC50 stood at 0.12 µM in assay [1], 0.14 µM in assay [2], 0.096 µM in assay [3] and 0.279 µM in assay [5]. Moreover, the 50% growth inhibitory concentration (GI50) in assay [6] amounted to 0.195 µM; in assay [7], 0.861 µM; in assay [8], 0.0827 µM. Further, the “THP-1 TGI” value in assay [6] turned out to be 0.433 µM. For the same molecule, the “K-562 TGI” value in assay [7] was greater than 10 µM. In addition, the “MV-4-11 TGI” value in assay [8] worked out at 0.142 µM.
`Cc1cc(N2C(=O)c3c(nc(C)n3C3CC3)C2c2ccc(Cl)cc2)cn2c(C)nnc12` (stereo not drawn) [Example 115, 6-(4-chlorophenyl)-3-cyclopropyl-5-(3,8-dimethyl-[1,2,4]triazolo[4,3-a]pyridin-6-yl)-2-methyl-5,6-dihydropyrrolo[3,4-d]imidazol-4(3H)-one]: the half-maximal inhibitory concentration (IC50) stood at 0.048 µM in assay [1], 0.068 µM in assay [2], 0.066 µM in assay [3] and 0.0205 µM in assay [5]. Also, the GI50 came to 0.0234 µM in assay [6], 0.102 µM in assay [7] and 0.0103 µM in assay [8]. Further, the “THP-1 TGI” value in assay [6] was 0.0581 µM. Also, the “K-562 TGI” value in assay [7] was greater than 10 µM. Also, the “MV-4-11 TGI” value in assay [8] worked out at 0.0177 µM.
With `COc1ccc(-c2nc3c([nH]2)C(c2ccc(Cl)cc2)N(c2cc(OC)c4nnc(C)n4c2)C3=O)cn1` (stereo not drawn) [Example 125, 6-(4-chlorophenyl)-5-(8-methoxy-3-methyl-[1,2,4]triazolo[4,3-a]pyridin-6-yl)-2-(6-methoxypyridin-3-yl)-5,6-dihydropyrrolo[3,4-d]imidazol-4(1H)-one], the IC50 in assay [4] worked out at 34.9 µM. For the same molecule, half-maximal inhibition in assay [5] (IC50) required 1.95 µM. In assay [6], the GI50 amounted to 2.14 µM and the “THP-1 TGI” value is 3.92 µM. Further, in assay [7], the concentration for 50% growth inhibition (GI50) turned out to be 5.29 µM and the “K-562 TGI” value was greater than 10 µM. In assay [8], the concentration for 50% growth inhibition (GI50) was determined as 0.809 µM and the “MV-4-11 TGI” value was found to be 1.12 µM.
Take `COc1ncc(-c2nc3c(n2C(C)C)[C@@H](c2ccc(Cl)cc2)N(c2cc(C)c4nnc(C(F)F)n4c2)C3=O)c(OC)n1` [Example 159, (R)-6-(4-chlorophenyl)-5-(3-(difluoromethyl)-8-methyl-[1,2,4]triazolo[4,3-a]pyridin-6-yl)-2-(2,4-dimethoxypyrimidin-5-yl)-1-isopropyl-5,6-dihydropyrrolo[3,4-d]imidazol-4(1H)-one]: the IC50 in assay [1] was less than 0.011 µM; in assay [2], 0.016 µM; in assay [3], 0.012 µM; in assay [4], 12.6 µM. The concentration for 50% growth inhibition (GI50) was 0.0121 µM in assay [6], 0.0405 µM in assay [7] and 0.00586 µM in assay [8]. Besides, the “THP-1 TGI” value in assay [6] was found to be 0.0315 µM. The “K-562 TGI” value in assay [7] is greater than 10 µM. The “MV-4-11 TGI” value in assay [8] worked out at 0.0156 µM.
On to `Cc1cc(N2C(=O)c3nc(C4=CCOCC4)n(C(C)C)c3C2c2ccc(Cl)cc2)nn2c(C(F)F)nnc12` (stereo not drawn) [Example 161, 6-(4-chlorophenyl)-5-(3-(difluoromethyl)-8-methyl-[1,2,4]triazolo[4,3-b]pyridazin-6-yl)-2-(3,6-dihydro-2H-pyran-4-yl)-1-isopropyl-5,6-dihydropyrrolo[3,4-d]imidazol-4(1H)-one], for which the IC50 in assay [1] is 0.015 µM; in assay [2] it was 0.03 µM; in assay [3] it was 0.016 µM; in assay [4], greater than 37 µM. The results for the GI50 in assay [6], in assay [7] and in assay [8] were 0.00609 µM, 0.0752 µM and 0.00599 µM, respectively. In addition, the “THP-1 TGI” value in assay [6] was found to be 0.01365 µM. In assay [7], the “K-562 TGI” value was greater than 10 µM. Further, in assay [8], the “MV-4-11 TGI” value came out at 0.01365 µM.
Consider `Cc1cc(N2C(=O)c3nc(C4=CCOCC4)[nH]c3[C@H]2c2ccc(Cl)cc2)cn2c(C)nnc12` [Example 167, (R)-6-(4-chlorophenyl)-2-(3,6-dihydro-2H-pyran-4-yl)-5-(3,8-dimethyl-[1,2,4]triazolo[4,3-a]pyridin-6-yl)-5,6-dihydropyrrolo[3,4-d]imidazol-4(1H)-one], for which the IC50 in assay [1] was determined as 0.035 µM; in assay [2], 0.063 µM; in assay [3] it was 0.053 µM; in assay [4], 1.65 µM. Moreover, the GI50 amounted to 0.103 µM in assay [6], 0.537 µM in assay [7] and 0.0336 µM in assay [8]. The “THP-1 TGI” value in assay [6] is 0.1885 µM. The “K-562 TGI” value in assay [7] is greater than 10 µM. Besides, in assay [8], the “MV-4-11 TGI” value worked out at 0.05785 µM.
Take `COc1ncccc1-c1nc2c(n1C(C)C)[C@@H](c1ccc(Cl)cc1)N(c1cc(C)c3nnc(C(F)F)n3n1)C2=O` [Example 168, (R)-6-(4-chlorophenyl)-5-(3-(difluoromethyl)-8-methyl-[1,2,4]triazolo[4,3-b]pyridazin-6-yl)-1-isopropyl-2-(2-methoxypyridin-3-yl)-5,6-dihydropyrrolo[3,4-d]imidazol-4(1H)-one]: the half-inhibitory concentration (IC50) was less than 0.011 µM in assay [1], 0.017 µM in assay [2], less than 0.011 µM in assay [3] and greater than 37 µM in assay [4]. Further, the concentration for 50% growth inhibition (GI50) was found to be 0.00565 µM in assay [6], 0.0308 µM in assay [7] and 0.00299 µM in assay [8]. Besides, in assay [6], the “THP-1 TGI” value was 0.0189 µM. The “K-562 TGI” value in assay [7] was greater than 10 µM. Further, the “MV-4-11 TGI” value in assay [8] came out at 0.0077 µM.
In the case of `Cc1cc(N2C(=O)c3nc(C4CCN(C)CC4)n(C(C)C)c3C2c2ccc(Cl)cc2)nn2c(C)nnc12` (stereo not drawn) [Example 169, 6-(4-chlorophenyl)-5-(3,8-dimethyl-[1,2,4]triazolo[4,3-b]pyridazin-6-yl)-1-isopropyl-2-(1-methylpiperidin-4-yl)-5,6-dihydropyrrolo[3,4-d]imidazol-4(1H)-one], the 50% inhibitory concentration (IC50) in assay [1] was 0.019 µM; in assay [2] it was 0.025 µM; in assay [3], 0.033 µM; in assay [4] it was greater than 37 µM. Moreover, the values for the 50% growth inhibitory concentration (GI50) in assay [6], in assay [7] and in assay [8] were 0.0115 µM, 0.0559 µM and 0.00194 µM, respectively. Besides, the “THP-1 TGI” value in assay [6] was 0.03295 µM. Besides, the “K-562 TGI” value in assay [7] was greater than 10 µM. In addition, the “MV-4-11 TGI” value in assay [8] was 0.005325 µM.

The values are drawn from patent publication US9890166B2, “Imidazopyrrolidine derivatives and their use in the treatment of disease” (NOVARTIS AG, priority 2013, dated 2018).
